We go through two substances from patent US7862844B2, “Taste improving substances” (Quest International Services B.V., priority 2005, dated 2011).

Assay [1] is described as follows: samples tasted by a professional panel. Here is the method: The following samples were prepared:
A: 0.6% NaCl and 0.03% MSG
B: 0.01% Fraction 2 as obtained in example 1
C: 0.6% NaCl and 0.03% MSG and 0.5 ppt Fraction B as obtained in example 1
D: 0.6% NaCl and 0.03% MSG and 0.4 ppb Fraction A as obtained in example 1
The samples were tasted by a professional panel and described as follows: […]

Assay [2] can be described thus: tasting different fractions of the Example 1 product (LC-MS, 1H NMR identification). Conditions: fractions of the lactic acid/GMP reaction product of Example 1. Here is the method:
1000 g of lactic acid (about 90% pure), 50 g of NaCl and 250 g of GMP were thoroughly mixed. The mixture was heated and stirred at 100° C. for 4 hour. The mixture was cooled to 60° C. and 4000 g of ethyl acetate was added. The mixture was stirred for 1 h. Next, the mixture was filtered over a glass filter and the filter residue was washed with 1000 g ethyl acetate. Thus, 362 g of an almost white powder was obtained. The main taste components of the obtained product were identified by LC-MS and tasting different fractions.

In the case of N-Lactoyl-GMP [Fraction B], the “taste description by professional panel” value is “mild acidic, late onset umami, kokumi, full, sweet, very lingering” in assay [1] (sample B: 0.01% of the fraction alone); “salty, umami, full, mouthfeel, kokumi, salivating and very lingering” in assay [1] (sample C: 0.5 ppt of the fraction with 0.6% NaCl and 0.03% MSG (base alone: salty, umami)). For the same substance, the “taste of the fractions containing the substance” value in assay [2] is ““long-lasting” and “kokumi””.

For O-Lactoyl-GMP [Fraction A], the “taste description by professional panel” value in assay [1] (sample D: 0.4 ppb of the fraction with 0.6% NaCl and 0.03% MSG (base alone: salty, umami)) is “salty, umami, full, after taste and lingering”. The “taste of the fractions containing the substance” value in assay [2] was ““long-lasting” and “kokumi””.
